# Results published in patent US11859203B2, “Cell culture methods” (UCB BIOPHARMA SRL, priority 2017, dated 2024).
# Legend:
# Format in all cases: cell-based, Chinese Hamster
# [1] = tested on: CHO-DG44 cells producing a multispecific antibody derivative (cell line 2); experiment: Fed-batch shake flask culture with cysteine/cystine derivatives, cell line 2 (Example 2); conditions: 50% replacement; day 14; cell line 2, shake flask
# Experimental: The ability of cysteine/cystine derivatives to reduce color and acidic species of a recombinant protein preparation in cell culture was evaluated using another antibody-producing cell line, cell line 2. For this experiment a scale-down model in shake flask was used. CHO-DG44 cells producing a multispecific antibody derivative were inoculated in 100 mL of basal media at a seeding density of 0.35×10^6 cells/mL. The shake flask vessels were 250 mL shake flasks (corning) disposed in an agitated incubator (Infors) protected from light. The cells were cultivated for 14 days at 36.8° C. with 80% of humidity. The cell cultures were agitated at 140 rpm at the beginning of the process. The agitation was increased during the process progressively to reach 250 rpm to maintain a DO % at 40% in the shake flask, as is it done in the 2 L bioreactor process. […]
# The cysteine present in the Feed was replaced by different cysteine and cystine derivatives with a replacement ratio of 50% equimolar (Table 1). […] Osmolality was daily monitored using an osmometer from Advanced instrument. Off line pH, dissolved O2 and dissolved CO2 were daily monitored using a Nova Biomedical Phox (Nova biomedical). Metabolites concentrations were daily determined using a CedexBioHT system (Roche). Viable cell concentration and cell viability were measured daily using a ViCell automated cell counter (Beckman Coulter). […]
# cell line 1 = experiment: Reproducibility in 2 L bioreactor, cell line 1, average of data sets 1 and 2 (Example 4); conditions: 50% replacement
# Experimental: (§1) The ability of cysteine/cystine derivatives to reduce color and acidic species of a recombinant protein preparation produced in cell culture was evaluated in a bioreactor for two cell lines. This model is more representative of the large-scale production than the shake flask due to the geometry and additional control. CHO-DG44 cells from cell line 1 and 2 were inoculated in 1300 mL of basal media at a seeding density of 0.35×10^6 cells/mL in 2 L stirred bioreactor (Sartorius). The cells were cultivated during 14 days in fed-batch mode. The cell cultures were agitated at 280 rpm and the DO was maintained at 40%. The cell culture was maintained at pH 7.0±0.2 with an automatic CO2 sparging regulation. Cells were cultured in a fed-batch mode with bolus addition of Feed every day of culture. The basal media contained 0.04 mmol/L of cysteine+0.38 mmol/L of cystine. The Feed contained 153.3 mmol/L of cystine. Over the entire 14-day production phase, the total volume of Feed added corresponded to 5.7% (w/w) of the culture start volume for cell line 1 and to 3.1% (w/w) of the culture start volume for cell line 2.
# (§2) The cysteine present in the Feed was replaced by different cysteine- and cystine derivatives at different percentages as presented in Table 2. A condition with only 50% of cysteine was added to test whether the improvements observed were due to the cysteine derivative or to the reduction of cysteine only. Osmolality was daily monitored using an osmometer from Advanced instrument. Off line pH, dissolved O2 and dissolved CO2 were daily monitored using a Nova Biomedical Phox (Nova biomedical). Metabolites concentrations were daily determined using a CedexBioHT system (Roche). Viable cell concentration and cell viability were measured daily using a ViCell automated cell counter (Beckman Coulter). The cell culture fluid was collected daily by centrifuging 1 mL of cell culture fluid for determination of antibody titer by HPLC prot A (waters) or using protein-L Octet measurement (Pall). At the end of the 14 days of culture, the cell culture fluid was harvested by centrifugation. The supernatant was then purified using a protein-A or L affinity chromatography (GE). The protein-A or L eluates were used for the molecular weight determination using UPLC size exclusion (Waters) and for the charge variants determination using isocapillary focusing (PROTEINSIMPLE iCE3). Another part of the protein-A eluates (only from cell line 1) was concentrated to 40 mg/mL using Amicon centricon centrifugal filter devices (Millipore). Color intensity of the concentrated antibody composition was measured in the concentrated protein A eluates using a spectrophotometer by transmission (UltrascanPro) and compared to the CIE (commission internationale de l'éclairage) scale. The numerical results were normalized to the concentration of 40 mg/mL.
# The reproducibility of the results was evaluated in bioreactor with cell line 1. The experiments of Example 3 were repeated with an additional control and a bioreactor with 50% S-sulfocysteine 50% Cysteine Feed. The data from the two experiments were analyzed to confirm the effect previously observed with cysteine/cystine derivatives.
# [2] = tested on: CHO-DG44 cells from cell line 1; experiment: Fed-batch Ambr15 mini bioreactor culture, different replacement levels, cell line 1 (Example 5); conditions: at optimum, around 70% of replacement
# Experimental: We tested different concentrations of cysteine/cystine derivatives on the improvement on the APG level of a recombinant protein preparation produced in cell culture cultivated in mini bioreactors. CHO-DG44 cells from cell line 1 were inoculated in 12 mL basal media at a seeding density of 0.35×10^6 cells/mL in Ambr15 bioreactors (Sartorius). The cells were cultivated in fed-batch mode during 14 days. The DO was maintained at 40% and the pH was maintained 7.0±0.2 with an automatic CO2 sparging regulation. Viable cell concentration and cell viability were measured daily using a ViCell automated cell counter (Beckman Coulter). Cells were cultured in a fed-batch mode with a daily bolus addition of Feed. The basal media contained 0.04 mmol/L cysteine+0.38 mmol/L cystine. The Feed contained 153.3 mmol/L of cystine. Over the entire 14-day production phase, the total volume of added Feed corresponded to 4.7% (v/v) of the culture start volume.
# Different percentages of cysteine present in the Feed was replaced by different cysteine- and cystine analogs. Table 4 provides an overview of different percentages tested and their equivalence in molar ratio relative to cysteine or cystine. E.g. for N-Acetyl-L-cysteine 10% means that 10% molar amount of cysteine equivalent has been replaced by 10% molar amount of N-Acetyl-L-cysteine; for N,N′-Diacetyl-L-cystine, 10% means that 10 molar amount of cystine equivalent has been replaced with 10% molar amount of N,N′-Diacetyl-L-cystine. At the end of the 14 days of culture, the cell culture fluid was harvested by centrifugation. The supernatant was then purified using a protein-A affinity chromatography (GE). The protein-A eluates were used for the charge variants determination using isocapillary focusing (PROTEINSIMPLE iCE3).
# [3] = tested on: CHO-DG44 cells from cell line 2; experiment: Fed-batch 2 L bioreactor culture with cysteine/cystine derivatives, cell line 2 (Example 3); conditions: 50% replacement; cell line 2, 2 L bioreactor
# Experimental: as §1, §2
# [4] = tested on: CHO-DG44 cells from cell line 1; experiment: Fed-batch 2 L bioreactor culture with cysteine/cystine derivatives, cell line 1 (Example 3); conditions: 50% replacement, cell line 1, 2 L bioreactor
# Experimental: as §1, §2
smiles,measurement,setting,value
"CC(=O)N[C@@H](CS)C(=O)O [N-acetyl-L-cysteine, N-Acetyl-L-cysteine]",decrease on acidic variants level compared to control,[1],14.5%
same,specific productivity,cell line 1; compared to 50% cysteine feed,did not impact the productivity
same,average decrease of acidic species level compared to control,cell line 1; data sets 1 and 2 average,10%
same,average decrease of b value level (color intensity) compared to control,cell line 1; data sets 1 and 2 average,13%
same,decrease in antibody titer compared to the controls average,cell line 1; data sets 1 and 2 average,10%
same,main species level,cell line 1; data sets 1 and 2 average,increase of main species
same,cell growth (VCC) compared to control,"cell line 1; from day 9, 2 L bioreactor, data sets 1 and 2",higher VCCs than the control conditions
same,decrease of acidic species,[2],12.5%
same,decrease of acidic species level compared to control,[3],13%
same,main species level,[3],increase of main species
same,decrease of acidic species level compared to control,[4],10%
same,main species level,[4],increase of main species
same,decrease of the b value level (color intensity) compared to control,[4]; 40 mg/mL,13%
